Test results taken from US7695931B2, “Carotenoid hydroxylase gene, method for preparing hydroxylated carotenoid, and novel geranylgeranyl pyrophosphate synthase” (Kirin Holdings Kabushiki Kaisha, priority 2003, dated 2010).

Experiments:
liver cancer = conditions: carotenoid-administered mice; incidence in control mice without carotenoid administration taken as 100%; cited from earlier work
lung cancer = conditions: cited from earlier work; for incidence of lung cancer: carotenoid-administered mice, incidence in control mice without carotenoid administration taken as 100%
skin cancer = conditions: carotenoid-administered mice; incidence in control mice without carotenoid administration taken as 100%; cited from earlier work
[1] = test system: lipid peroxidation in rat brain homogenate; assay: in vitro anti-peroxidation activity: lipid peroxidation in rat brain homogenate (TBA, A532); assay type: biochemical; conditions: for IC50: concentration halving A532 vs non-addition group, ascorbic acid 100 μM, pH 7.4, 37° C., 1 hr, read-out: IC50 (μM), inhibitory effect on lipid peroxidation in rat brain homogenate; for inhibitory effect on lipid peroxidation (in words): rat brain homogenate, in vitro
Protocol: Although various carotenoids have a wide variety of physiological activities and effects, it is believed that activity to inhibit peroxidation of lipids in the living body caused by oxygen radicals is the basis for all activities/effects. Therefore, in vitro inhibitory effects of the two carotenoids synthesized in Example 14 on lipid peroxidation caused by free radicals were examined using rat brain homogenate. This assay was conducted basically according to the method of Kubo et al. (Kubo, K., Yoshitake, Y., Kumada, K., Shuto K., Nakamizo, N. “Radical scavenging action of flunarizine in rat brain in vitro”. Arch. Int. Pharmacodyn. Ther. 272, 283-295, 1984). Briefly, 0.05 ml of methanol solution of a test sample, 0.1 ml of 1 mM ascorbic acid (final concentration 100 μM) and 0.05 ml of H2O were added to 0.6 ml of 100 mM phosphate buffer (pH 7.4) and pre-incubated at 37° C. for 5 min. Then, 0.2 ml of 2.5% (w/v) rat brain homogenate was added thereto to start reaction, followed by incubation at 37° C. for 1 hr under shaking. One milliliter of a mixed solution containing 20% (w/v) trichloroacetic acid, 0.5% (w/v) 2-thiobarbituric acid and 0.2 N HCl was added to the above reaction solution to terminate the reaction. The resultant solution was boiled at 100 ° C. for 30 min for color development. After cooling, the solution was centrifuged at 3000 rpm for 5 min. Absorbance at 532 nm (A532) of the resultant supernatant was measured. The concentration of test sample which is required to decrease the A532 of test sample addition group to one half of the A532 of test sample non-addition group was calculated as IC50. This value was taken as lipid peroxidation inhibitory effect in rat brain homogenate.

[2] = compared with β-carotene; cited from earlier work

Compound	incidence of liver cancer (liver cancer) [%]	incidence of lung cancer (lung cancer) [%]	incidence of skin cancer (skin cancer) [%]	IC50 [1] [µM]	also measured
CC1=C[C@H](O)CC(C)(C)[C@H]1/C=C/C(C)=C/C=C/C(C)=C/C=C/C=C(C)/C=C/C=C(C)/C=C/C1=C(C)C[C@@H](O)CC1(C)C [lutein]	50	70	–	–	–
CC1=CCCC(C)(C)C1/C=C/C(C)=C/C=C/C(C)=C/C=C/C=C(C)/C=C/C=C(C)/C=C/C1=C(C)CCCC1(C)C (stereo not drawn) [α-carotene]	50	40	–	–	–
fucoxanthin	30	–	10	–	–
CC1=C(/C=C/C(C)=C/C=C/C(C)=C/C=C/C=C(C)/C=C/C=C(C)/C=C/C2=C(C)C(=O)CC(O)C2(C)C)C(C)(C)C(O)CC1=O (single isomer, unassigned) [2,2′-Dihydroxycanthaxanthin, 2,2′-dihydroxy-β,β-carotene-4,4′-dione]	–	–	–	4.8	inhibitory effect on lipid peroxidation (in words) [1]: strong inhibitory effects on lipid peroxidation
CC1=C(/C=C/C(C)=C/C=C/C(C)=C/C=C/C=C(C)/C=C/C=C(C)/C=C/C2=C(C)CCCC2(C)C)C(C)(C)CCC1 [β-Carotene, β-carotene]	70	139	–	> 100	–
CC1=C(/C=C/C(C)=C/C=C/C(C)=C/C=C/C=C(C)/C=C/C=C(C)/C=C/C2=C(C)C(=O)CC(O)C2(C)C)C(C)(C)CCC1=O (single isomer, unassigned) [2-Hydroxycanthaxanthin, 2-hydroxy-β,β-carotene-4,4′-dione]	–	–	–	8.1	inhibitory effect on lipid peroxidation (in words) [1]: strong inhibitory effects on lipid peroxidation
CC1=C(/C=C/C(C)=C/C=C/C(C)=C/C=C/C=C(C)/C=C/C=C(C)/C=C/C2=C(C)C[C@@H](O)CC2(C)C)C(C)(C)CCC1 [β-cryptoxanthin]	–	–	–	–	intake ratio into the living body relative to β-carotene [2]: 10 times
CC1=C(/C=C/C(C)=C/C=C/C(C)=C/C=C/C=C(C)/C=C/C=C(C)/C=C/C2=C(C)C(=O)[C@@H](O)CC2(C)C)C(C)(C)C[C@H](O)C1=O [astaxanthin]	30	70	100	–	–
CC1=C(/C=C/C(C)=C/C=C/C(C)=C/C=C/C=C(C)/C=C/C=C(C)/C=C/C2=C(C)C(=O)CCC2(C)C)C(C)(C)CCC1=O [Canthaxanthin]	–	–	–	50	–
CC(C)=CCC/C(C)=C/C=C/C(C)=C/C=C/C(C)=C/C=C/C=C(C)/C=C/C=C(C)/C=C/C=C(\C)CCC=C(C)C [lycopene]	100	–	10	–	inhibition of lung cancer (in words) (lung cancer; comparison of the three carcinogenesis models): highly effective in inhibiting lung cancer
